Test [1] has as its target T1, 5-hydroxytryptamine receptor 1A (Homo sapiens, UniProt P08908).
T1 sequence (P08908 whole entry): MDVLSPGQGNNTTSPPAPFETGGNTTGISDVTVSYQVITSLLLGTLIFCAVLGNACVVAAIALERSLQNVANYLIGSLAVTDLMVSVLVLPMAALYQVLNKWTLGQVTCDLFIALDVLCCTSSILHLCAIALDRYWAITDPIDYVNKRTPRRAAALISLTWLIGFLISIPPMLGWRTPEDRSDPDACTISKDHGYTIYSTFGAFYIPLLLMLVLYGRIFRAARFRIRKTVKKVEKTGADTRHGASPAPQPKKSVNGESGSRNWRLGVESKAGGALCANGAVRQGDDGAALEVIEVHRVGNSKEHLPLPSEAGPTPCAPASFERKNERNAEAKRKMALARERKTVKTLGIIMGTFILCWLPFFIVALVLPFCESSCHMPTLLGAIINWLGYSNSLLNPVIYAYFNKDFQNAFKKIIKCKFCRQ
The test can be described thus: Binding affinity to 5-HT 1A (unknown origin) by competition binding assay.

The target of test [2] is 5-hydroxytryptamine receptor 2B (Homo sapiens, UniProt P41595). Kind of test: Binding affinity to 5-HT 2B (unknown origin) by competition binding assay.
Test [3] addresses T2, 5-hydroxytryptamine receptor 2C (Homo sapiens, UniProt P28335).
T2 sequence (P28335 whole entry): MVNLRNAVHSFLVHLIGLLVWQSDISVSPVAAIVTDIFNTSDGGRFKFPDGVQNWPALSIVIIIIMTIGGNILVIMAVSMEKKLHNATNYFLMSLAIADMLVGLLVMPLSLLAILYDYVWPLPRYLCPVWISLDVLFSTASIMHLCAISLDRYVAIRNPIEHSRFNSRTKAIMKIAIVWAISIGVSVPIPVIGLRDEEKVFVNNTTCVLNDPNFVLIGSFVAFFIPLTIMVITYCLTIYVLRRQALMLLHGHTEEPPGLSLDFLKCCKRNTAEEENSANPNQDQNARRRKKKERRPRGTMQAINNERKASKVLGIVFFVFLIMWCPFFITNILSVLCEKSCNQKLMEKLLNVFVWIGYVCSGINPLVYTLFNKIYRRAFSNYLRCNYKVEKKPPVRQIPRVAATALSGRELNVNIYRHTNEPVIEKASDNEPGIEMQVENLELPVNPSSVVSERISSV
Kind of test: Binding affinity to 5-HT 2C (unknown origin) by competition binding assay.

For test [4], the target named is 5-hydroxytryptamine receptor 5A (Homo sapiens, UniProt P47898). Kind of test: Binding affinity to 5-HT 5A (unknown origin) by competition binding assay.
The target in test [5] is 5-hydroxytryptamine receptor 6 (Homo sapiens, UniProt P50406). The test can be described thus: Binding affinity to 5-HT 6 (unknown origin) by competition binding assay.
Test [6] has as its target 5-hydroxytryptamine receptor 7 (Homo sapiens, UniProt P34969). Kind of test: Binding affinity to 5-HT 7 (unknown origin) by competition binding assay.
Test [7] addresses T3, Alpha-1A adrenergic receptor (Homo sapiens, UniProt P35348).
T3 sequence (P35348 whole entry): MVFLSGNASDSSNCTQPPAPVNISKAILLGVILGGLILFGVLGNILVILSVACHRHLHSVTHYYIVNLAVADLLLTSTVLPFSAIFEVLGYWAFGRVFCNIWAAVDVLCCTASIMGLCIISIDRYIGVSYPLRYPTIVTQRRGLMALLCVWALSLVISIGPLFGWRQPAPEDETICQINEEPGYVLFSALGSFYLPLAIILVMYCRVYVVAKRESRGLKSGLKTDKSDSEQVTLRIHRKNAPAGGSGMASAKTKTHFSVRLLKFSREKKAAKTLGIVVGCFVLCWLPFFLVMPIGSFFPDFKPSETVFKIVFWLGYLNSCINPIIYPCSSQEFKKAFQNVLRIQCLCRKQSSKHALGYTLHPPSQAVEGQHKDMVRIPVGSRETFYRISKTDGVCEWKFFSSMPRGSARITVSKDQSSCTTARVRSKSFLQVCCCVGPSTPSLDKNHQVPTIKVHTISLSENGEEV
The test can be described thus: Binding affinity to alpha-1A adrenergic receptor (unknown origin) by competition binding assay.

The target in test [8] is Alpha-2B adrenergic receptor (Homo sapiens, UniProt P18089). The test can be described thus: Binding affinity to alpha-2B adrenergic receptor (unknown origin) by competition binding assay.
The target of test [9] is Sigma non-opioid intracellular receptor 1 (Homo sapiens, UniProt Q99720). Kind of test: Binding affinity to sigma 1 receptor (unknown origin) by competition binding assay.
Test [10] in a line: Binding affinity to sigma 2 receptor (unknown origin) by competition binding assay. Also on record: species or system Homo sapiens.
Test [11] deals with Sodium-dependent noradrenaline transporter (Homo sapiens, UniProt P23975). The test can be described thus: Binding affinity to NET (unknown origin) by competition binding assay.

The values that follow come from ChEMBL document CHEMBL3751848, “Receptor binding profiles and quantitative structure-affinity relationships of some 5-substituted-N,N-diallyltryptamines” (Bioorg Med Chem Lett, 2016).

Each structure is given as a SMILES string. A value given as a limit tells only on which side of the number the result lay.

Sequence of 5-hydroxytryptamine receptor 6 (P50406 whole entry): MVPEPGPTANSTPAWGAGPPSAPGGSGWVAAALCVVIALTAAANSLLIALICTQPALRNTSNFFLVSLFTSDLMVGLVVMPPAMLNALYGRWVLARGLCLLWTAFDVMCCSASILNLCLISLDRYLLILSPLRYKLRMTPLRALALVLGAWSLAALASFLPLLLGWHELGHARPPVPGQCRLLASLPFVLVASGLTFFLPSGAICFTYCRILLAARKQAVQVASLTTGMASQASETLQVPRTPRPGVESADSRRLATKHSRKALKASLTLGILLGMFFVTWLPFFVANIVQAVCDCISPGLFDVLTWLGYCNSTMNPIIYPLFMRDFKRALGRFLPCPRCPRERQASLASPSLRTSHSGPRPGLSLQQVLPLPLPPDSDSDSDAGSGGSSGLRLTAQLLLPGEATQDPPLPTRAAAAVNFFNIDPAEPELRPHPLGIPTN
Sequence of 5-hydroxytryptamine receptor 2B (P41595 whole entry): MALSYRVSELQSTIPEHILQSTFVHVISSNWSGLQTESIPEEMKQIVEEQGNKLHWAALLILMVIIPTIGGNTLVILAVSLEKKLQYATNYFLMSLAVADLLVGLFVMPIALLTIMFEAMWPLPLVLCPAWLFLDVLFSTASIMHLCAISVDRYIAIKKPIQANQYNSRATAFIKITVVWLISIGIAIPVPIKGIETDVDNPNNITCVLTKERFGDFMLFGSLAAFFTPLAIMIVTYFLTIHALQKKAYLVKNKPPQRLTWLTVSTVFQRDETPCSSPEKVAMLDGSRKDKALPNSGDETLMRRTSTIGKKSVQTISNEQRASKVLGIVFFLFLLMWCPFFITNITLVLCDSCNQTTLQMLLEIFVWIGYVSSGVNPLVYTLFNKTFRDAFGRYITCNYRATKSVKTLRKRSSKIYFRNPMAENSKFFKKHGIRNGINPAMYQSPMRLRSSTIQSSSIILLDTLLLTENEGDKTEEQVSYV
Sequence of Sigma non-opioid intracellular receptor 1 (Q99720 whole entry): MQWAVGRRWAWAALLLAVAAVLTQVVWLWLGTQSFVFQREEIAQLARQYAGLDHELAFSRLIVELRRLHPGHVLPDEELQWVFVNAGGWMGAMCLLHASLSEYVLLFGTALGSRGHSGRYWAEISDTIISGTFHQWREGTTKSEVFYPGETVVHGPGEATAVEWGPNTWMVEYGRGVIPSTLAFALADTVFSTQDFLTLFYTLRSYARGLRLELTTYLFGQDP
Sequence of 5-hydroxytryptamine receptor 7 (P34969 whole entry): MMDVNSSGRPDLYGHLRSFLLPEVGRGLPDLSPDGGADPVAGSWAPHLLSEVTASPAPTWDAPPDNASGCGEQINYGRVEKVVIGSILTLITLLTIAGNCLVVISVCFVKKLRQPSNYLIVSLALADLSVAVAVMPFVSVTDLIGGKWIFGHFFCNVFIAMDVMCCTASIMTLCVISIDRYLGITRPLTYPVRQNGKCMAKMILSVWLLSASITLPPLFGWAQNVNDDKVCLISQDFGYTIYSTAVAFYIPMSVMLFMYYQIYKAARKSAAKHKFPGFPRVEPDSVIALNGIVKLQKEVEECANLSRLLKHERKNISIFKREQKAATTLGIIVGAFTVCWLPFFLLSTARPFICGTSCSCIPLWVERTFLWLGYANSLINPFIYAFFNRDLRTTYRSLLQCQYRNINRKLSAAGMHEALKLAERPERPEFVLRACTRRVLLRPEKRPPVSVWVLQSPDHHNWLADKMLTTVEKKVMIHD
Sequence of Sodium-dependent noradrenaline transporter (P23975 whole entry): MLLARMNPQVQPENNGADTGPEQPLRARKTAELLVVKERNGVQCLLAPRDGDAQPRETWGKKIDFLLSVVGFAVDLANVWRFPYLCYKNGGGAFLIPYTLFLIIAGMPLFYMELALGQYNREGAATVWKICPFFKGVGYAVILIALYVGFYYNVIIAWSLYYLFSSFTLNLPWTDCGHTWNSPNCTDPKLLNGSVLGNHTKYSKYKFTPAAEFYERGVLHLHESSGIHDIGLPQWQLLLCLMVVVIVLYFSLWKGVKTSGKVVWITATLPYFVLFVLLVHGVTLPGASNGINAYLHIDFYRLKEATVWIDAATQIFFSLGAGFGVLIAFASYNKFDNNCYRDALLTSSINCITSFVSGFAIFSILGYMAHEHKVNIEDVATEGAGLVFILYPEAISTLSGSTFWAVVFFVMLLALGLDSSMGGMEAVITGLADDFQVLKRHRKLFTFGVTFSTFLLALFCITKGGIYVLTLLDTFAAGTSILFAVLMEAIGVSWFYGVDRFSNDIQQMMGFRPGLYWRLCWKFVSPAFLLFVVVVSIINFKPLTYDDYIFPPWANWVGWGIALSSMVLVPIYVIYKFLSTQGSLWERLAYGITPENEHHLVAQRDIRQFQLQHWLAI
Sequence of 5-hydroxytryptamine receptor 5A (P47898 whole entry): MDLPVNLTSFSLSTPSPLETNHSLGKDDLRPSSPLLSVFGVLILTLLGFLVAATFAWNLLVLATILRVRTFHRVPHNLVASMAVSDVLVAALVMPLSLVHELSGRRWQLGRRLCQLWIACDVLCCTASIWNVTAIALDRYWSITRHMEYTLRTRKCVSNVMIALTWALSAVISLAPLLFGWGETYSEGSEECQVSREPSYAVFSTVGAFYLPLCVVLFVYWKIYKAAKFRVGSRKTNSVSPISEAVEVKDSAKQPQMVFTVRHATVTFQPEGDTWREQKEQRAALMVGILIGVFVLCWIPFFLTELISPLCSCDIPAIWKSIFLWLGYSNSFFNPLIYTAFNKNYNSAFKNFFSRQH
Sequence of Alpha-2B adrenergic receptor (P18089 whole entry): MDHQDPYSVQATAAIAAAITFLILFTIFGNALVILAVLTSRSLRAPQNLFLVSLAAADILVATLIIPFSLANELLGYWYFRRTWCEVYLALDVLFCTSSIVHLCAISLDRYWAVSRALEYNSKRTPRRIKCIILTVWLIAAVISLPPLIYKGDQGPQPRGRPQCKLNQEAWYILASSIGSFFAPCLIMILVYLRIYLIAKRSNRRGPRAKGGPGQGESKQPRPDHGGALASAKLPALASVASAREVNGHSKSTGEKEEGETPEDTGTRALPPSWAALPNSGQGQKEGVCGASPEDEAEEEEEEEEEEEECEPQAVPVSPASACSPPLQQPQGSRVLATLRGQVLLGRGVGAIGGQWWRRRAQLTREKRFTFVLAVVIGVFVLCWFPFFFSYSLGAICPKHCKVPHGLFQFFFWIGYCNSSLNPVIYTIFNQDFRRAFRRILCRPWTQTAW

Take `C=CCN(CC=C)CCc1c[nH]c2ccccc12`: the Ki in [1] (read-out: Ki) was under 10000 nM; in test [1] (read-out: pKi (converted)), 100 nM; in [2] (read-out: Ki) it was under 10000 nM; in [2] (read-out: pKi (converted)), 61.7 nM; in test [3] (read-out: Ki) it was under 10000 nM; in test [3] (read-out: pKi (converted)), 389 nM. Besides, the Ki was under 10000 nM in test [5] (read-out: Ki); 1740 nM in test [5] (read-out: pKi (converted)); 1660 nM in [7]; under 10000 nM in test [8] (read-out: Ki); 302 nM in test [8] (read-out: pKi (converted)); under 10000 nM in test [9] (read-out: Ki). In addition, the Ki in [9] (read-out: pKi (converted)) is 100 nM; in test [10], under 10 µM; in test [11] it was 1000 nM. The values for the pKi in test [4], in test [6] and in test [10] were over 5, over 5 and 6.45, respectively.

Take `C=CCN(CC=C)CCc1c[nH]c2ccc(C)cc12`: the Ki was under 10000 nM in test [1] (read-out: Ki); 31.6 nM in test [1] (read-out: pKi (converted)); under 10000 nM in test [2] (read-out: Ki); 60.3 nM in test [2] (read-out: pKi (converted)); under 10000 nM in [3] (read-out: Ki); 316 nM in test [3] (read-out: pKi (converted)). Besides, the Ki is 3.24 µM in [4]; under 10000 nM in test [5] (read-out: Ki); 741 nM in test [5] (read-out: pKi (converted)); 155 nM in test [6]; 1260 nM in test [7]; under 10000 nM in test [9] (read-out: Ki). Also, in test [9] (read-out: pKi (converted)), the Ki was 74.1 nM. The pKi – broadly, the negative decadic logarithm of the Ki, by convention in mol/L – in test [11] is over 5.
